Test results published in ChEMBL document CHEMBL3885861, “Open TG-GATES”.

Species: Rattus norvegicus
Assay: Open TG-GATES - Regimen: Single
Type: toxicity, organism-based, Sprague-Dawley
Design: regimen Single, gender Male, age 6 weeks
Conditions: in vivo, po, 2000 mg/kg, route gavage, dose level High; for APTT / Bas / Eos / Fbg / Hb / Ht / Lym / MCH / MCHC / MCV / Mono / Neu / Plat / RBC / Ret / WBC: tissue Blood; for KIDNEY_L / KIDNEY_R / KIDNEY_TOTAL: tissue Kidney; for LIVER: tissue Liver; for ALP / ALT / AST / BUN / CRE / Ca / Cl / DBIL / GLC / IP / K / LDH / Na / PL / RALB / TBIL / TC / TG / TP / gamma-GTP: tissue Plasma

SMILES: CC(=O)Oc1ccccc1C(=O)O [ASPIRIN]
- TERMINAL_BW (3 h): 220 g
- APTT (3 h): 19.5 s
- Bas (3 h): 0%
- Eos (3 h): 1.2%
- Fbg (3 h): 224.8 mg/dL
- Hb (3 h): 13.7 g/dL
- Ht (3 h): 37.7%
- Lym (3 h): 62.2%
- MCH (3 h): 21.9 pg
- MCHC (3 h): 36.3%
- MCV (3 h): 60.4 fL
- Mono (3 h): 4.6%
- Neu (3 h): 30.4%
- Plat (3 h): 124.1 x10_4/uL
- RBC (3 h): 625.8 x10_4/ul
- Ret (3 h): 8.1%
- WBC (3 h): 71.4 x10_2/uL
- KIDNEY_L (3 h): 1 g
- KIDNEY_R (3 h): 1 g
- KIDNEY_TOTAL (3 h): 1.9 g
- LIVER (3 h): 8.9 g
- ALP (3 h): 991.6 IU/L
- ALT (3 h): 41.4 IU/L
- AST (3 h): 86.6 IU/L
- BUN (3 h): 15.6 mg/dL
- CRE (3 h): 0.4 mg/dL
- Ca (3 h): 8.3 mg/dL
- Cl (3 h): 103.6 meq/L
- DBIL (3 h): 0.06 mg/dL
- GLC (3 h): 200 mg/dL
- IP (3 h): 9 mg/dL
- K (3 h): 3.4 meq/L
- LDH (3 h): 248.4 IU/L
- Na (3 h): 141 meq/L
- PL (3 h): 96.4 mg/dL
- RALB (3 h): 3.5 g/dL
- TBIL (3 h): 0.1 mg/dL
- TC (3 h): 62 mg/dL
- TG (3 h): 24 mg/dL
- TP (3 h): 5.8 g/dL
- gamma-GTP (3 h): 1.4 IU/L
- TERMINAL_BW (6 h): 217 g
- APTT (6 h): 20.8 s
- Bas (6 h): 0%
- Eos (6 h): 0.8%
- Fbg (6 h): 225.6 mg/dL
- Hb (6 h): 13.7 g/dL
- Ht (6 h): 37.8%
- Lym (6 h): 63.8%
- MCH (6 h): 22.1 pg
- MCHC (6 h): 36.3%
- MCV (6 h): 60.8 fL
- Mono (6 h): 3%
- Neu (6 h): 31.6%
- Plat (6 h): 118.3 x10_4/uL
- RBC (6 h): 622 x10_4/ul
- Ret (6 h): 8.3%
- WBC (6 h): 91.9 x10_2/uL
- KIDNEY_L (6 h): 1 g
- KIDNEY_R (6 h): 1 g
- KIDNEY_TOTAL (6 h): 2 g
- LIVER (6 h): 8.3 g
- ALP (6 h): 843.8 IU/L
- ALT (6 h): 35.4 IU/L
- AST (6 h): 79 IU/L
- BUN (6 h): 17.8 mg/dL
- CRE (6 h): 0.4 mg/dL
- Ca (6 h): 8.1 mg/dL
- Cl (6 h): 104.2 meq/L
- DBIL (6 h): 0.056 mg/dL
- GLC (6 h): 221.4 mg/dL
- IP (6 h): 7.9 mg/dL
- K (6 h): 3.2 meq/L
- LDH (6 h): 233.4 IU/L
- Na (6 h): 140.4 meq/L
- PL (6 h): 103.4 mg/dL
- RALB (6 h): 3.5 g/dL
- TBIL (6 h): 0.1 mg/dL
- TC (6 h): 67.8 mg/dL
- TG (6 h): 12.2 mg/dL
- TP (6 h): 5.7 g/dL
- gamma-GTP (6 h): 1.2 IU/L
- TERMINAL_BW (9 h): 217.3 g
- APTT (9 h): 22.1 s
- Bas (9 h): 0%
- Eos (9 h): 0.8%
- Fbg (9 h): 224.8 mg/dL
- Hb (9 h): 13.9 g/dL
- Ht (9 h): 38.3%
- Lym (9 h): 65%
- MCH (9 h): 21.8 pg
- MCHC (9 h): 36.3%
- MCV (9 h): 60.1 fL
- Mono (9 h): 2.2%
- Neu (9 h): 31.2%
- Plat (9 h): 127.8 x10_4/uL
- RBC (9 h): 636.2 x10_4/ul
- Ret (9 h): 8%
- WBC (9 h): 88.7 x10_2/uL
- KIDNEY_L (9 h): 0.9 g
- KIDNEY_R (9 h): 0.9 g
- KIDNEY_TOTAL (9 h): 1.8 g
- LIVER (9 h): 7.9 g
- ALP (9 h): 712.8 IU/L
- ALT (9 h): 34.4 IU/L
- AST (9 h): 77.2 IU/L
- BUN (9 h): 15 mg/dL
- CRE (9 h): 0.4 mg/dL
- Ca (9 h): 8 mg/dL
- Cl (9 h): 105.2 meq/L
- DBIL (9 h): 0.048 mg/dL
- GLC (9 h): 211.4 mg/dL
- IP (9 h): 7.6 mg/dL
- K (9 h): 3.3 meq/L
- LDH (9 h): 212.4 IU/L
- Na (9 h): 139.4 meq/L
- PL (9 h): 97.2 mg/dL
- RALB (9 h): 3.4 g/dL
- TBIL (9 h): 0.092 mg/dL
- TC (9 h): 59.4 mg/dL
- TG (9 h): 11 mg/dL
- TP (9 h): 5.6 g/dL
- gamma-GTP (9 h): 0.8 IU/L
- TERMINAL_BW (24 h): 210.7 g
- APTT (24 h): 32.6 s
- Bas (24 h): 0%
- Eos (24 h): 0.8%
- Fbg (24 h): 223 mg/dL
- Hb (24 h): 14.7 g/dL
- Ht (24 h): 39.8%
- Lym (24 h): 69.2%
- MCH (24 h): 22 pg
- MCHC (24 h): 37%
- MCV (24 h): 59.4 fL
- Mono (24 h): 2.6%
- Neu (24 h): 26.4%
- Plat (24 h): 125.8 x10_4/uL
- RBC (24 h): 669.4 x10_4/ul
- Ret (24 h): 7.5%
- WBC (24 h): 56.2 x10_2/uL
- KIDNEY_L (24 h): 0.9 g
- KIDNEY_R (24 h): 0.9 g
- KIDNEY_TOTAL (24 h): 1.9 g
- LIVER (24 h): 7 g
- ALP (24 h): 912.4 IU/L
- ALT (24 h): 30 IU/L
- AST (24 h): 138.6 IU/L
- BUN (24 h): 14.6 mg/dL
- CRE (24 h): 0.4 mg/dL
- Ca (24 h): 7 mg/dL
- Cl (24 h): 104 meq/L
- DBIL (24 h): 0.048 mg/dL
- GLC (24 h): 230.6 mg/dL
- IP (24 h): 6.3 mg/dL
- K (24 h): 3.1 meq/L
- LDH (24 h): 232.4 IU/L
- Na (24 h): 138.4 meq/L
- PL (24 h): 81.6 mg/dL
- RALB (24 h): 3.5 g/dL
- TBIL (24 h): 0.092 mg/dL
- TC (24 h): 44.4 mg/dL
- TG (24 h): 24.8 mg/dL
- TP (24 h): 5.7 g/dL
- gamma-GTP (24 h): 1.4 IU/L
